{
  "source": "patent US20060094031A1",
  "about": "“Alpha-L-arabinofuranosidase histochemical reporter gene assay” (Stowers Institute for Medical Research, priority 2004, published 2006)",
  "key": {"[1]": {"tested_on": "β-galactosidase (lacZ) expressed in NIH 3T3 cells", "conditions": "for color of cells expressing lacZ after staining with the substrate: histochemical staining", "procedure": "(§1) FIG. 1 depicts a schematic of the CMV abfA expression vector. […] NIH 3T3 cells were transfected with CMV-abfA and 30 hours later were fixed with 2% formaldehyde, 0.2% glutaraldehyde for 5 minutes and then processed for histochemical detection of abfA expression using a standard protocol for lacZ detection (5), but substituting Z-ara (0.02%) for X-gal. The synthesis for Z-ara is described in Example 3. Just like X-gal, Z-ara is a colorless water-soluable chromogen that forms an insoluable blue precipitate upon hydrolysis. […] Alternative β-galactosidase substrates to X-gal, 6-chloro-3-indolyl-β-D-galactopyranaside (“Red-gal,” Research Organics, Cleveland, Ohio, USA) and 5-bromo-6-chloro-3-indolyl-β-D-galactopyranoside (“Magenta-gal,” BioSynth AG, Switzerland), allow LacZ^+ cells to appear red instead of blue and thus easily distinguishable from Z-ara positive cells.\n(§2) To determine whether α-L-arabinofuranosidase and β-galactosidase could be detected both in the same cell, NHI 3T3 cells were co-transfected with CMV-abfA and with proBGN (7), a plasmid encoding the lacZ gene tagged with a nuclear localization signal. […] One day after transfection cells were fixed followed by in situ visualization of β-galactosidase and α-L-arabinofuranosidase activities by incubation with 0.02% Magenta-gal and 0.02% Z-ara, respectively. Imaging was with a Leica DMR microscope mounted with an Optronics Magnafire digital camera."}, "[2]": {"target": "T1, α-L-arabinofuranosidase (S. lividans abfA gene) expressed in NIH 3T3 cells (Streptomyces lividans, UniProt P53627)", "T1 construct": "expressed in transfected cells; host or cells: NIH 3T3 cells transfected with CMV-abfA (pcDNA3 backbone)", "T1 sequence (P53627 1-662)": "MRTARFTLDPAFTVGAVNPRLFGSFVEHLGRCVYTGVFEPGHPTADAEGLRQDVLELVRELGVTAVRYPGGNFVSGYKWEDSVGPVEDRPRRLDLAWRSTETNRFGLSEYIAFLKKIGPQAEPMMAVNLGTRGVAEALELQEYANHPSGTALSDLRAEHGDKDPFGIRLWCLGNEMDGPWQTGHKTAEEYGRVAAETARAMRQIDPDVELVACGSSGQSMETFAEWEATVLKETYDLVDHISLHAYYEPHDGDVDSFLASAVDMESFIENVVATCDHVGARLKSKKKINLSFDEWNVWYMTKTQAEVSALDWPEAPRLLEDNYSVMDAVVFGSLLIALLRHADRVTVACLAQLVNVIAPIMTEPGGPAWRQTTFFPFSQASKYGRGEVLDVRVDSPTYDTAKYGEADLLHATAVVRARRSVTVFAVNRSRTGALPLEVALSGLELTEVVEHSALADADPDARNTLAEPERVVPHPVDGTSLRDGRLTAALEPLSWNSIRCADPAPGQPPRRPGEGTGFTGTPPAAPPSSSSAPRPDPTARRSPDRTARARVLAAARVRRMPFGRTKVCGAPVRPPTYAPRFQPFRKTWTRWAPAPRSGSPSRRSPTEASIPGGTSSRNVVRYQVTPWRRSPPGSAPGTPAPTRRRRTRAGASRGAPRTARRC", "assay": "histochemical (in situ) detection of abfA expression in transfected mammalian cells with chromogenic substrate", "type": "cell-based", "conditions": "for color of cells expressing abfA after staining with the substrate: NIH 3T3 cells transfected with CMV-abfA, fixed 30 hours later, substrate 0.02% in lacZ detection protocol", "procedure": "as §1\nOne feature of the Z-ara substrate is that the 5-bromo-3-indoloxyl-derived final product has birefringent properties.\nas §2"}, "[3]": {"assay": "solubility of the chromogen in water", "type": "physicochemical", "conditions": "unhydrolysed chromogen; forms insoluable blue precipitate upon hydrolysis"}},
  "note": "“Also recorded” adds a separate entry of the source.",
  "data": [
    {"molecule": "5-bromo-6-chloro-3-indolyl-β-D-galactopyranoside [Magenta-gal]", "values": [
      {"measurement": "color of cells expressing lacZ after staining with the substrate", "setting": "[1]", "value": "red"},
      {"measurement": "staining from lacZ expression in co-transfected cells (dual detection)", "setting": "[1]; NIH 3T3 co-transfected with CMV-abfA and proBGN (nuclear-localizing β-galactosidase), one day after transfection, 0.02% substrate, FIGS. 2(C), 2(D)", "value": "red nucleus"}
    ]},
    {"molecule": "OC[C@H]1O[C@@H](Oc2c[nH]c3cc(Cl)ccc23)[C@H](O)[C@@H](O)[C@H]1O", "note": "[Red-gal, 6-chloro-3-indolyl-β-D-galactopyranaside]", "values": [
      {"measurement": "color of cells expressing lacZ after staining with the substrate", "setting": "[1]", "value": "red"}
    ]},
    {"molecule": "OC[C@H]1O[C@@H](Oc2c[nH]c3ccc(Br)c(Cl)c23)[C@H](O)[C@@H](O)[C@H]1O", "note": "[X-gal, 5-bromo-4-chloro-3-indolyl-β-D-galactosidase]", "values": [
      {"measurement": "color of cells expressing abfA after staining with the substrate", "setting": "[2]", "value": "no color change; also recorded: no blue staining"},
      {"measurement": "solubility in water", "setting": "[3]", "value": "water-soluable"}
    ]},
    {"molecule": "OC[C@H]1O[C@@H](Oc2c[nH]c3ccc(Br)cc23)C(O)C1O", "note": "(stereo partly drawn) [Z-ara, 5-bromo-3-indolyl-α-arabinofuranoside]", "values": [
      {"measurement": "subcellular location of staining in abfA-expressing cells", "setting": "[2]; NIH 3T3, CMV-abfA, FIG. 2(A)", "value": "predominantly cytoplasmic"},
      {"measurement": "appearance of stained AbfA+ cells under polarized light", "setting": "[2]; NIH 3T3, CMV-abfA, polarized light, FIG. 2(B)", "value": "distinct yellow birefringence"},
      {"measurement": "color of cells expressing abfA after staining with the substrate", "setting": "[2]", "value": "dark blue"},
      {"measurement": "staining from abfA expression in co-transfected cells (dual detection)", "setting": "[2]; NIH 3T3 co-transfected with CMV-abfA and proBGN, one day after transfection, 0.02% substrate, FIGS. 2(C), 2(D)", "value": "blue cytoplasm"},
      {"measurement": "color of cells expressing lacZ after staining with the substrate", "setting": "[1]", "value": "remain colorless"},
      {"measurement": "solubility in water", "setting": "[3]", "value": "water-soluable"}
    ]}
  ]
}
